In patent US20240041991A1, “STABLE LIQUID DISPERSINB COMPOSITIONS” (KANE BIOTECH INC., priority 2020, published 2024):
Read-outs that look alike come from different tables or passages of the source. Marks after values point to notes of the source that are not given here.

Columns and labels:
DispersinB [1] = format: biochemical, Aggregatibacter actinomycetemcomitans; details: 50 mM citrate buffer pH 5.9; salt concentration as in label; control with no salts = 100%
Excerpt: Activity of the control sample with no salts was considered 100%.

DispersinB [2] = test: Effect of buffer and pH on DispersinB enzymatic activity (β-N-Acetylglucosaminidase assay kit); format: biochemical, Aggregatibacter actinomycetemcomitans; details: buffer strength 100 mM, 100 mM NaCl, citrate pH 5.9 = 100%
Protocol: Lyophilized DispersinB powder was dissolved in selected buffers (citrate, phosphate) of defined pH (5.5 -7.5). The DispersinB concentration was adjusted to 100 μg/ml. Salt concentration was maintained at 100 mM sodium chloride. […] The enzymatic activity was presented as percentages in comparison to enzymatic activity of DispersinB in 100 mM Citrate buffer, 100 mM NaCl, pH 5.9, which was considered 100%.
Enzymatic activity in citrate buffer with a pH of 5.9 was considered 100%. * indicates statistically significant (p<0.05) values in paired two tailed t-test, each treatment was compared with enzymatic activity of DispersinB in corresponding buffer of pH 5.9.

DispersinB [3] = test system: DispersinB
Protocol: DispersinB enzyme (100 μg/ml) solutions in 50 mM citrate buffer and phosphate buffer (pH 5.9), with 100 mM NaCl containing EDTA (0.5%-10%) were tested for DispersinB enzymatic activity following β-N-Acetylglucosaminidase assay.

DispersinB [4] = format: biochemical, Aggregatibacter actinomycetemcomitans; details: for % enzymatic activity of DispersinB (Mean): polyol % as in label
Protocol: Samples from each formula was incubated at 3 different temperatures (42° C., 52° C. and 62° C.) for 3 hours. Following a 3 hour incubation, the samples were brought to room temperature for enzymatic activity assay.
Two-tailed paired T-test was performed by to compare each polyol containing treatment with the treatment devoid of polyol. Treatment with probability values (p) less than 5% (0.05) was considered significant.

Cl.N [100 mM NH4Cl, NH4Cl]
% enzymatic activity of DispersinB (Mean) (DispersinB [1]): 129* %

O=C(O)CC(O)(CC(=O)O)C(=O)O [Citrate]
% Enzyme activity (DispersinB [2]; pH 5.5): 72* % | % Enzyme activity (DispersinB [2]; pH 5.9): 100% | % Enzyme activity (DispersinB [2]; pH 6): 76* % | % Enzyme activity (DispersinB [2]; pH 6.5): 53* % | % Enzyme activity (DispersinB [2]; pH 7): 35* % | % Enzyme activity (DispersinB [2]; pH 7.5): 21* %

[Cl-].[K+] [100 mM KCl, KCl]
% enzymatic activity of DispersinB (Mean) (DispersinB [1]): 152* %

N.N.O=S(=O)(O)O [100 mM (NH4)2SO4, (NH4)2SO4]
% enzymatic activity of DispersinB (Mean) (DispersinB [1]): 91%

O=S(=O)([O-])[O-].[Mg+2] [100 mM MgSO4, MgSO4]
% enzymatic activity of DispersinB (Mean) (DispersinB [1]): 87%

Phosphate
% Enzyme activity (DispersinB [2]; pH 5.5): 80* % | % Enzyme activity (DispersinB [2]; pH 5.9): 100% | % Enzyme activity (DispersinB [2]; pH 6): 81* % | % Enzyme activity (DispersinB [2]; pH 6.5): 50* % | % Enzyme activity (DispersinB [2]; pH 7): 24* % | % Enzyme activity (DispersinB [2]; pH 7.5): 12* %

O=C(O)CN(CCN(CC(=O)O)CC(=O)O)CC(=O)O [EDTA, Ethylenediaminetetraacetic acid]
% Activity (DispersinB [3]; Citrate buffer pH 5.9, 100 mM NaCl, EDTA 0 mg/ml): 100.00% | % Activity (DispersinB [3]; Citrate buffer pH 5.9, 100 mM NaCl, EDTA 0.5 mg/ml): 101.45% | % Activity (DispersinB [3]; Citrate buffer pH 5.9, 100 mM NaCl, EDTA 1 mg/ml): 95.86% | % Activity (DispersinB [3]; Citrate buffer pH 5.9, 100 mM NaCl, EDTA 2.5 mg/ml): 104.19% | % Activity (DispersinB [3]; Citrate buffer pH 5.9, 100 mM NaCl, EDTA 9.4 mg/ml): 83.18% | % Activity (DispersinB [3]; Phosphate buffer pH 5.9, 100 mM NaCl, EDTA 0 mg/ml): 100.00% | % Activity (DispersinB [3]; Phosphate buffer pH 5.9, 100 mM NaCl, EDTA 0.5 mg/ml): 102.52% | % Activity (DispersinB [3]; Phosphate buffer pH 5.9, 100 mM NaCl, EDTA 1 mg/ml): 99.78% | % Activity (DispersinB [3]; Phosphate buffer pH 5.9, 100 mM NaCl, EDTA 2.5 mg/ml): 91.13% | % Activity (DispersinB [3]; Phosphate buffer pH 5.9, 100 mM NaCl, EDTA 9.4 mg/ml): 66.51% | concentrations of EDTA that tend to reduce the enzyme activity (DispersinB [3]; citrate buffer): greater than 2.5 mg/ml | concentrations of EDTA that tend to reduce the enzyme activity (DispersinB [3]; phosphate buffer): greater than 1 mg/ml

OCC(O)CO [glycerol, Propane-1,2,3-triol]
% enzymatic activity of DispersinB (Mean) (DispersinB [4]; 4° C., freshly made control without polyol = 100%, listed as Glycerol 1%): 117* % | % enzymatic activity of DispersinB (Mean) (DispersinB [4]; 4° C., freshly made control without polyol = 100%, listed as Glycerol 2.5%): 114* % | % enzymatic activity of DispersinB (Mean) (DispersinB [4]; 4° C., freshly made control without polyol = 100%, listed as Glycerol 5%): 116* % | % enzymatic activity of DispersinB (Mean) (DispersinB [4]; 4° C., freshly made control without polyol = 100%, listed as Glycerol 10%): 124* % | % enzymatic activity of DispersinB (Mean) (DispersinB [4]; 4° C., freshly made control without polyol = 100%, listed as Glycerol 20%): 128* % | % enzymatic activity of DispersinB (Mean) (DispersinB [4]; 4° C., freshly made control without polyol = 100%, listed as Glycerol 30%): 131* % | % enzymatic activity of DispersinB (Mean) (DispersinB [4]; 42° C. for 3 hours, control without polyol = 100%, listed as Glycerol 1%): 94* % | % enzymatic activity of DispersinB (Mean) (DispersinB [4]; 42° C. for 3 hours, control without polyol = 100%, listed as Glycerol 2.5%): 98* % | % enzymatic activity of DispersinB (Mean) (DispersinB [4]; 42° C. for 3 hours, control without polyol = 100%, listed as Glycerol 5%): 90* % | % enzymatic activity of DispersinB (Mean) (DispersinB [4]; 42° C. for 3 hours, control without polyol = 100%, listed as Glycerol 10%): 115* % | % enzymatic activity of DispersinB (Mean) (DispersinB [4]; 42° C. for 3 hours, control without polyol = 100%, listed as Glycerol 20%): 112* % | % enzymatic activity of DispersinB (Mean) (DispersinB [4]; 42° C. for 3 hours, control without polyol = 100%, listed as Glycerol 30%): 116* % | temperature stabilizing effect on DispersinB at elevated temperatures (DispersinB [4]; 42° C., 52° C., and 62° C.): exhibited temperature stabilizing effect | % enzymatic activity of DispersinB (Mean) (DispersinB [4]; 52° C. for 3 hours, control without polyol = 100%, listed as Glycerol 5%): 16* % | % enzymatic activity of DispersinB (Mean) (DispersinB [4]; 52° C. for 3 hours, control without polyol = 100%, listed as Glycerol 10%): 31* % | % enzymatic activity of DispersinB (Mean) (DispersinB [4]; 52° C. for 3 hours, control without polyol = 100%, listed as Glycerol 20%): 92* % | % enzymatic activity of DispersinB (Mean) (DispersinB [4]; 52° C. for 3 hours, control without polyol = 100%, listed as Glycerol 30%): 93* %

OC[C@@H](O)[C@H](O)[C@@H](O)CO [xylitol, Xylitol]
% enzymatic activity of DispersinB (Mean) (DispersinB [4]; 4° C., freshly made control without polyol = 100%, listed as 0.25% Xylitol): 98% | % enzymatic activity of DispersinB (Mean) (DispersinB [4]; 4° C., freshly made control without polyol = 100%, listed as 0.5% Xylitol): 106% | % enzymatic activity of DispersinB (Mean) (DispersinB [4]; 4° C., freshly made control without polyol = 100%, listed as 1% Xylitol): 97% | % enzymatic activity of DispersinB (Mean) (DispersinB [4]; 4° C., freshly made control without polyol = 100%, listed as 2% Xylitol): 117* % | % enzymatic activity of DispersinB (Mean) (DispersinB [4]; 4° C., freshly made control without polyol = 100%, listed as 4% Xylitol): 120* % | % enzymatic activity of DispersinB (Mean) (DispersinB [4]; 4° C., freshly made control without polyol = 100%, listed as 6% Xylitol): 115% | % enzymatic activity of DispersinB (Mean) (DispersinB [4]; 4° C., freshly made control without polyol = 100%, listed as 8% Xylitol): 118% | % enzymatic activity of DispersinB (Mean) (DispersinB [4]; 4° C., freshly made control without polyol = 100%, listed as 10% Xylitol): 107% | % enzymatic activity of DispersinB (Mean) (DispersinB [4]; 4° C., freshly made control without polyol = 100%, listed as 20% Xylitol): 91* % | % enzymatic activity of DispersinB (Mean) (DispersinB [4]; 4° C., freshly made control without polyol = 100%, listed as 30% Xylitol): 85* % | % enzymatic activity of DispersinB (Mean) (DispersinB [4]; 4° C., freshly made control without polyol = 100%, listed as 40% Xylitol): 86* % | % enzymatic activity of DispersinB (Mean) (DispersinB [4]; 42° C. for 3 hours, control without polyol = 100%, listed as 0.25% Xylitol): 90% | % enzymatic activity of DispersinB (Mean) (DispersinB [4]; 42° C. for 3 hours, control without polyol = 100%, listed as 0.5% Xylitol): 85% | % enzymatic activity of DispersinB (Mean) (DispersinB [4]; 42° C. for 3 hours, control without polyol = 100%, listed as 1% Xylitol): 88% | % enzymatic activity of DispersinB (Mean) (DispersinB [4]; 42° C. for 3 hours, control without polyol = 100%, listed as 2% Xylitol): 101* % | % enzymatic activity of DispersinB (Mean) (DispersinB [4]; 42° C. for 3 hours, control without polyol = 100%, listed as 4% Xylitol): 91% | % enzymatic activity of DispersinB (Mean) (DispersinB [4]; 42° C. for 3 hours, control without polyol = 100%, listed as 6% Xylitol): 97% | % enzymatic activity of DispersinB (Mean) (DispersinB [4]; 42° C. for 3 hours, control without polyol = 100%, listed as 8% Xylitol): 93% | % enzymatic activity of DispersinB (Mean) (DispersinB [4]; 42° C. for 3 hours, control without polyol = 100%, listed as 10% Xylitol): 86% | % enzymatic activity of DispersinB (Mean) (DispersinB [4]; 42° C. for 3 hours, control without polyol = 100%, listed as 20% Xylitol): 80% | % enzymatic activity of DispersinB (Mean) (DispersinB [4]; 42° C. for 3 hours, control without polyol = 100%, listed as 30% Xylitol): 71* % | % enzymatic activity of DispersinB (Mean) (DispersinB [4]; 42° C. for 3 hours, control without polyol = 100%, listed as 40% Xylitol): 72* % | % enzymatic activity of DispersinB (Mean) (DispersinB [4]; 52° C. for 3 hours, control without polyol = 100%, listed as 0.25% Xylitol): 6% | % enzymatic activity of DispersinB (Mean) (DispersinB [4]; 52° C. for 3 hours, control without polyol = 100%, listed as 0.5% Xylitol): 7% | % enzymatic activity of DispersinB (Mean) (DispersinB [4]; 52° C. for 3 hours, control without polyol = 100%, listed as 1% Xylitol): 9* % | % enzymatic activity of DispersinB (Mean) (DispersinB [4]; 52° C. for 3 hours, control without polyol = 100%, listed as 2% Xylitol): 17* % | % enzymatic activity of DispersinB (Mean) (DispersinB [4]; 52° C. for 3 hours, control without polyol = 100%, listed as 4% Xylitol): 26* % | % enzymatic activity of DispersinB (Mean) (DispersinB [4]; 52° C. for 3 hours, control without polyol = 100%, listed as 6% Xylitol): 43* % | % enzymatic activity of DispersinB (Mean) (DispersinB [4]; 52° C. for 3 hours, control without polyol = 100%, listed as 8% Xylitol): 53* % | % enzymatic activity of DispersinB (Mean) (DispersinB [4]; 52° C. for 3 hours, control without polyol = 100%, listed as 10% Xylitol): 61* % | % enzymatic activity of DispersinB (Mean) (DispersinB [4]; 52° C. for 3 hours, control without polyol = 100%, listed as 20% Xylitol): 69* % | % enzymatic activity of DispersinB (Mean) (DispersinB [4]; 52° C. for 3 hours, control without polyol = 100%, listed as 30% Xylitol): 70* % | % enzymatic activity of DispersinB (Mean) (DispersinB [4]; 52° C. for 3 hours, control without polyol = 100%, listed as 40% Xylitol): 68* % | % enzymatic activity of DispersinB (Mean) (DispersinB [4]; 62° C. for 3 hours, control without polyol = 100%, listed as 8% Xylitol): 1* % | % enzymatic activity of DispersinB (Mean) (DispersinB [4]; 62° C. for 3 hours, control without polyol = 100%, listed as 10% Xylitol): 2* % | % enzymatic activity of DispersinB (Mean) (DispersinB [4]; 62° C. for 3 hours, control without polyol = 100%, listed as 20% Xylitol): 2* % | % enzymatic activity of DispersinB (Mean) (DispersinB [4]; 62° C. for 3 hours, control without polyol = 100%, listed as 30% Xylitol): 3* % | % enzymatic activity of DispersinB (Mean) (DispersinB [4]; 62° C. for 3 hours, control without polyol = 100%, listed as 40% Xylitol): 42* %
